Key:
[1] = tested on: serum glutamic oxalacetic transaminase (S.G.O.T.); experiment: Carbon tetrachloride intoxication in ewes, S.G.O.T. level; assay type: in vivo, Ile-de-France ewes; settings: CCl4 3600 mg/kg sub-cutaneous
Experimental: 4. Two groups of non-pregnant Ile-de-France ewes, weighing from 46 to 68 kg, were intoxicated with carbon tetrachloride administered sub-cutaneously at a dosage of 3600 mg/kg, as a suspension in vaseline oil.
The second group alone was simultaneously administered diphenylamine at a dosage of 100 mg/kg.
The criterion used to evaluate the magnitude of the intoxication was the variation of the serum glutamic oxalacetic transaminase (S.G.O.T.) level.
In the following Table, the percent increase of said serum levels is given with respect to the level determined prior to the intoxication.

liver = experiment: Pentobarbital-induced sleeping test in mice (hepato-toxicity of carbon tetrachloride); assay type: in vivo; settings: CCl4 0.075 ml/kg; protected group with diphenylamine 4 mg/kg; reference group 20 mn
Experimental: 3. […] This test provides a measure of the capability of the liver to metabolize some toxic materials. The principle is as follows: in normal mice, a certain sleeping time is induced by a certain dosage of pentobarbital; in mice which have been administered 48 hours previously a hepato-toxic material, the same pentobarbital dosage induces a longer sleeping time, because the injured liver has greater difficulty in metabolizing pentobarbital; on administration of a supposedly detoxicant material 24 hours after the toxic material, one may examine whether sleeping time is reduced or not and, thus, may quantify the resulting protection.
This test is effected using carbon tetrachloride as toxicant at a dosage of 0.075 ml/kg, and diphenylamine as protective material at a dosage of 4 mg/kg.

[2] = Acute toxicity of bithionol sulfoxide with/without diphenylamine in mice (death rate); assay type: in vivo, mice (male); settings: mouse, in vivo, 7 days
Experimental: (§1) The acute toxicity of bithionol sulfoxide was compared with that of a combination of 20 parts bithionol sulfoxide per part diphenylamine.
(§2) Ten groups of 10 male mice each were used for this test. Five reference groups were administered increasing dosages of bithionol sulfoxide alone. The five other groups were administered the bithionol sulfoxide+diphenylamine combination. The test materials were administered orally.
(§3) The data relating to the death rate variations in both groups, with respect to the dosages of product used, are set forth in the following Table.

Limousin ewes = experiment: Hexachlorophene intoxication in ewes, clinical signs and weight; assay type: in vivo
Experimental: 5. Two groups of non-pregnant Limousin ewes, weighing from 45 to 52 kg, were intoxicated with hexachlorophene at a dosage of 90 mg/kg, administered orally; whereas the generally used therapeutic dosage is 10 mg/kg.
The clinical signs, and particularly the variation of the weight curve, were noted over a 5 day period of time.
One of the groups was simultaneously administered 2 mg/kg diphenylamine, by the same route of administration.

[3] = C.A., Vol. 54 17708g; cited from earlier work
[4] = C.A., Vol. 50-15949d; cited from earlier work
mice [5] = experiment: Acute toxicity of bithionol sulfoxide with/without diphenylamine in mice (death rate); assay type: in vivo, mice (male); settings: mice, oral; conclusion in words
Experimental: as §1, §2, §3

myases = settings: in animals; Merck Index, 8th Ed., p. 387; cited from earlier work
mice [6] = experiment: Acute toxicity of hexachlorophene with/without diphenylamine in mice (death rate); assay type: in vivo, mice (male); settings: mice, oral; conclusion in words
Experimental: (§4) Acute toxicity tests were conducted in mice. The death rate noted in mice administered hexachlorophene alone was compared with that noted in mice which were administered the same dosages of hexachlorophene, but which had previously been protected by administration of diphenylamine.
(§5) Ten groups of 10 male mice each were used in such experiments. Five reference groups were given hexachlorophene alone, at increasing dosages. The five other groups were administered diphenylamine at a dosage of 1.5 mg/kg one-half hour prior to administration of the same hexachlorophene dosages as the reference animals. Both compounds were administered orally, using peanut oil as the excipient.
(§6) The data relating to the death rate variations in both groups, with respect to the dosages of compound used, are set forth in the following Table.

sheep = experiment: Hexachlorophene oral intoxication in sheep with/without diphenylamine (deaths); assay type: in vivo; settings: for Number of sheep killed: of 5 sheep
Experimental: 7. Six groups of 5 sheep each were orally intoxicated with increasing dosages of hexachlorophene (135-142.5-150 mg/kg) with or without diphenylamine.

Nematodes = settings: in dogs; C.A., Vol. 35, 197, 9; cited from earlier work
[7] = Acute toxicity of hexachlorophene with/without diphenylamine in mice (death rate); assay type: in vivo, mice (male); settings: mouse, in vivo, 7 days, combination: diphenylamine 1.5 mg/kg oral one-half hour prior
Experimental: as §4, §5, §6

[8] = hexachlorophene 90 mg/kg oral, 5 days, protected group with diphenylamine 2 mg/kg oral

## ClC(Cl)(Cl)Cl [CCl4, carbon tetrachloride]
[1]; vs level prior to intoxication, Group II with diphenylamine 100 mg/kg simultaneously
  Percent S.G.O.T. increase: 91%
liver
  Sleeping time: 109 mn

## [O-][S+](c1cc(Cl)cc(Cl)c1O)c1cc(Cl)cc(Cl)c1O [bithionol sulfoxide]
[2]; bithionol sulfoxide 450 mg/kg oral, Group II with diphenylamine 22.5 mg/kg
  mortality at 168 h: 0%
[2]; bithionol sulfoxide 600 mg/kg oral, Group II with diphenylamine 30 mg/kg
  mortality at 168 h: 10%
[2]; bithionol sulfoxide 800 mg/kg oral, Group II with diphenylamine 40 mg/kg
  mortality at 168 h: 20%
[2]; bithionol sulfoxide 1066 mg/kg oral, Group II with diphenylamine 53 mg/kg
  mortality at 168 h: 40%
[2]; bithionol sulfoxide 1420 mg/kg oral, Group II with diphenylamine 71 mg/kg
  mortality at 168 h: 30%

## c1ccc(Nc2ccccc2)cc1 [diphenylamine]
Limousin ewes; hexachlorophene 90 mg/kg, diphenylamine 2 mg/kg, oral, conclusion in words
  weight stabilization and reduction of the clinical signs: weight stabilization and the most substantial reduction of the clinical signs
[3]
  anticonvulsant activity: anticonvulsant activity
[4]
  antiparasitic activity: antiparasitic activity
[1]; diphenylamine 100 mg/kg
  S.G.O.T. level increase (in words): S.G.O.T. level increases in a significantly reduced manner
Mice [5]
  bithionol sulfoxide-induced acute toxicity: reduces the bithionol sulfoxide-induced acute toxicity in mice
myases
  action against certain myases: action against certain myases
Mice [6]
  hexachlorophene-induced acute toxicity: reduces the hexachlorophene-induced acute toxicity in mice
sheep; hexachlorophene 135-142.5-150 mg/kg oral, sheep
  death rate (in words): significant decrease of the death rate
Nematodes
  action against certain Nematodes: against certain Nematodes in dogs

## Oc1c(Cl)cc(Cl)c(Cl)c1Cc1c(O)c(Cl)cc(Cl)c1Cl [hexachlorophene]
Limousin ewes; hexachlorophene 90 mg/kg oral, 5 days, one animal of the group
  convulsions: in one animal of the group, convulsions were observed
Limousin ewes; [8]
  clinical signs: a sustained state of exhaustion was noted in the animals throughout the observation period
  loss of weight (in words): General loss of weight was noted
Limousin ewes; hexachlorophene 90 mg/kg oral, unprotected group
  decrease of the weight within five days: 14.38%
Limousin ewes; hexachlorophene 90 mg/kg oral, unprotected after five days (48.6 kg before), protected with diphenylamine 2 mg/kg, remained stable
  average weight: 41.66 kg
[7]; hexachlorophene 109.6 mg/kg oral
  mortality at 168 h: 10%
[7]; hexachlorophene 128.2 mg/kg oral
  mortality at 168 h: 20%
[7]; hexachlorophene 150 mg/kg oral
  mortality at 168 h: 20%
[7]; hexachlorophene 175.5 mg/kg oral
  mortality at 168 h: 40%
[7]; hexachlorophene 205.3 mg/kg oral
  mortality at 168 h: 60%
sheep; hexachlorophene 135 mg/kg oral, diphenylamine 0 or 1.58 mg/kg
  Number of sheep killed: 1
sheep; hexachlorophene 142.5 mg/kg oral, diphenylamine 0 or 1.67 mg/kg
  Number of sheep killed: 4
sheep; hexachlorophene 150 mg/kg oral, diphenylamine 0 or 1.76 mg/kg
  Number of sheep killed: 5
